The record followed here is patent US20260028338A1, “HETEROBIFUNCTIONAL COMPOUNDS AND METHODS OF TREATING DISEASE” (Halda Therapeutics OpCo, Inc., priority 2023, published 2026).

Bounds are passed on as bounds.

Assay [1] deals with T1, His-tagged BRD4 BD1 (46-168) (Homo sapiens, UniProt O60885).
T1 construct: His-tagged BRD4 BD1 (46-168) and biotinylated histone H4K5/8/12/16(Ac) peptide
Briefly: AlphaLISA competition assay, BRD4 BD1. Format: binding. As to conditions: BRD4-BD1, AlphaLISA competition with biotinylated histone H4K5/8/12/16(Ac) peptide, 10 nM. On the procedure:
(§1) Exemplary compounds were tested for ability to bind to bromodomain-containing protein 4 (BRD4).
(§2) Compounds were tested using a developed AlphaLISA competition assay. Briefly, His-tagged BRD4 BD1 (46-168) and biotinylated histone H4K5/8/12/16(Ac) peptide (ANASPEC, AS-64989-1) were incubated in 20 mM HEPES pH 7.5, 100 mM NaCl, 0.5 mM TCEP, 0.1% BSA, 0.02% CHAPS at a final concentration of 10 nM. Test compounds were serially diluted ten times in the same buffer and were added to the BRD4-peptide mixture for 1 h incubation at room temperature. Following incubation, Streptavidin AlphaLISA acceptor beads (PerkinElmer, AL125M) were added to BRD4-peptide-compound samples to a final concentration of 0.01 mg/mL for a 0.5 h incubation at room temperature in the dark. Following incubation, the same amount of Nickel Chelate Alpha donor beads (PerkinElmer, AS101M) were added to the samples for a final 1 h incubation. The AlphaLISA signals were measured using an EnVision plate reader (PerkinElmer). The data were uploaded to Screening Ultra (Dotmatics) to determine the half-maximal inhibitory concentration (IC50) for each test compound.

Assay [2] addresses T2, His-tagged BRD4 BD2 (333-460) (Homo sapiens, UniProt O60885).
T2 construct: The same assay was developed for His-tagged BRD4 BD2 (333-460) and biotinylated histone H4K5/8/12/16(Ac) peptide
The assay can be described thus: AlphaLISA competition assay, BRD4 BD2. Format: binding. As to conditions: BRD4-BD2, AlphaLISA competition with biotinylated histone H4K5/8/12/16(Ac) peptide, 20 nM. Here is the method:
as §1, §2
The same assay was developed for His-tagged BRD4 BD2 (333-460) and biotinylated histone H4K5/8/12/16(Ac) peptide at a final concentration of 20 nM.

Assay [3] concerns T-Rex 293 cell line SC cells having increased expression of BCL6 protein. Briefly: Cellular growth inhibition assay, T-Rex 293 SC cells with doxycycline (CellTiter-Glo). The assay is classed as cell-based. The conditions noted are these: T-Rex 293 SC cells with 10 ng/mL doxycycline (increased BCL6 expression), 72 hours, CellTiter-Glo 2.0. On the procedure: (§3) Exemplary compounds were tested for ability to inhibit the proliferation of the following types of cells: (i) a T-Rex 293 cell line having increased expression of BCL6 protein due to exposure of doxycycline and (ii) a T-Rex 293 cell line lacking increased expression of BCL6 protein.
(§4) The following types of cells were prepared for this experiment: (i) a T-Rex 293 cell line having increased expression of BCL6 protein due to exposure to doxycycline and (ii) a T-Rex 293 cell line lacking increased expression of BCL6 protein. Ability of the test compounds to inhibit proliferation of the foregoing cell types was evaluated according to the procedures set forth below.
(§5) The doxycycline-inducible BCL6 protein expressing cell line was established using the following protocol: T-Rex 293 cells were purchased from Invitrogen (Cat #R71007) and transfected using Lipofectamine 2000 with the wild-type BCL6 protein sequence cloned into the pcDNA4/TO vector. Transfected cells were selected using 400 μg/mL Zeocin (Invitrogen Cat #R25001). Following selection, single clones were raised and maintained in Dulbecco's Modified Eagle Medium (DMEM) supplemented with 10% w/w Tetracycline-free fetal bovine serum (FBS) and 250 μg/mL Zeocin. Clones were analyzed for expression of BCL6 protein in the presence and absence of 10 ng/mL doxycycline (Sigma Cat #D9891), and a single doxycycline-inducible clone (hereinafter “SC”) was selected for use in downstream assays.
(§6) The SC cells were seeded on poly-D-lysine coated, black clear-bottom 384-well plates at 2500/well, in 25 μL Dulbecco's Modified Eagle Medium (DMEM) supplemented with 10% w/w Tetracycline-free fetal bovine serum (FBS) and 1% w/w pen-strep, with or without 10 ng/mL doxycycline. Pen-Strep is a commercially available mixture of penicillin G and streptomycin, which is used in mammalian cell culture media to prevent bacterial contamination. Dulbecco's Modified Eagle Medium (DMEM) supplemented with 10% w/w Tetracycline-free fetal bovine serum (FBS) and 1% w/w pen-strep, with or without 10 ng/mL doxycycline is herein referred to as Treatment Medium. Following seeding of cells in the plates, the plates were spun at 300×g for 30 seconds, then equilibrated to room temperature for 30 minutes, and then deposited in a humidified tissue culture incubator maintained at 37° C. with 5% CO2.
(§7) At 24 hours after seeding of the cells, dilutions of test compound were prepared in DMSO and dissolved in Treatment Medium, to achieve a final DMSO concentration of 0.5% w/w, thereby providing the Test Compound Solution. A 25 μL aliquot of the Test Compound Solution was added to cells in the well plates. An equal volume of a solution containing DMSO and Treatment Medium was used as a negative control. Following treatment of cells with Test Compound Solution or said equal volume of a solution containing DMSO and Treatment Medium, the plates were spun at 300×g for 30 seconds, and then left in an incubator for 72 hours.
(§8) At the end of the treatment duration, cell viability was quantified with CellTiter-Glo 2.0 reagent (Promega Cat #G9243). For this purpose, plates were equilibrated to room temperature for 30 minutes, and then 25 μL of CellTiter-Glo 2.0 reagent was added to cells in the plate wells. Plates were then agitated on a shaker for two minutes at 500 rpm and subsequently incubated at room temperature for 10 minutes. Following incubation, the plates were spun at 3000×g for 30 seconds, then sealed with an optical adhesive cover, and luminescence readings were measured with an EnVision Plate Reader (Perkin Elmer).
(§9) Data was normalized using zero luminescence for baseline. A four-parameter non-linear regression curve fit was applied to dose-response data in GraphPad Prism data analysis software to determine the half-maximal growth inhibitory concentration (GI50) for each test compound.

Assay [4] has as its system T-Rex 293 cell line SC cells lacking increased expression of BCL6 protein. Briefly: Cellular growth inhibition assay, T-Rex 293 SC cells without doxycycline (CellTiter-Glo). As to conditions: T-Rex 293 SC cells not exposed to doxycycline (no increased BCL6 expression), 72 hours, CellTiter-Glo 2.0. The assay is classed as cell-based. On the procedure:
as §3, §4, §5, §6, §7, §8, §9
Background: Cellular ATP, detected with luciferase, serves as a proxy for viable cell number.

Assay [5] relates to Farage cell line. Briefly: Cellular growth inhibition assay, Farage cells (CellTiter-Glo). Format: cell-based. As to conditions: Farage cell line (DLBCL), 72 hours, CellTiter-Glo 2.0. Here is the method: Exemplary compounds were tested for ability to inhibit the proliferation of Su-DHL-4 and Farage cells. Su-DHL-4 and Farage cells are commercially available diffuse large B cell lymphoma cell lines (DLBCL).
Su-DHL-4 and Farage cells were purchased from American Type Cell Culture (ATCC Cat #CRL-2957/CRL-2630) and then seeded on poly-D-lysine coated, black clear-bottom 384-well plates at 3000/well in 25 μL Roswell Park Memorial Institute media (RPMI-1640) supplemented with 10% w/w Fetal bovine serum (FBS) and 1% w/w Pen-Strep. Pen-Strep is a commercially available mixture of penicillin G and streptomycin, which is used in mammalian cell culture media to prevent bacterial contamination. Roswell Park Memorial Institute media (RPMI-1640) supplemented with 10% w/w fetal bovine serum (FBS), and 1% w/w Pen-Strep is herein referred to as Treatment Medium. Following seeding of cells in the plates, the plates were spun at 300×g for 30 seconds, then equilibrated to room temperature for 30 minutes, and then deposited in a humidified tissue culture incubator maintained at 37° C. with 5% CO2.
as §7, §8, §9

`CCS(=O)(=O)Nc1ccc(Oc2cccc(OCCCN3CCN(CC4CCN(c5ncc(Cl)c(Nc6ccc7c(c6)cc(OCC(=O)NC)c(=O)n7C)n5)CC4)CC3)c2)c(-c2cn(C)c(=O)c3[nH]ccc23)c1` [Compound I-6]: the IC50 in assay [1] and in assay [2] was 5 to 50 nM each time. Besides, the GI50 in assay [3] and in assay [4] was below 500 nM each time.

In the case of `CCS(=O)(=O)Nc1ccc(Oc2ccc(OCCN3CCN(CC4CCN(c5ncc(Cl)c(Nc6ccc7c(c6)cc(OCC(=O)NC)c(=O)n7C)n5)CC4)CC3)cc2)c(-c2cn(C)c(=O)c3[nH]ccc23)c1` [Compound I-7], the IC50 in assay [1] and in assay [2] was 5 to 50 nM each time. In addition, the GI50 in assay [3] and in assay [4] was below 500 nM in each case.

`CCS(=O)(=O)Nc1ccc(Oc2ccc(OCCCN3CCN(CC4CCN(c5ncc(Cl)c(Nc6ccc7c(c6)cc(OCC(=O)NC)c(=O)n7C)n5)CC4)CC3)cc2)c(-c2cn(C)c(=O)c3[nH]ccc23)c1` [Compound I-8]: the 50% inhibitory concentration (IC50) in assay [1] and in assay [2] was 5 to 50 nM throughout. The GI50 in assay [3] and in assay [4] was below 500 nM in each case.

Take `CCS(=O)(=O)Nc1ccc(Oc2cccc(OCCCCN3CCN(CC4CCN(c5ncc(Cl)c(Nc6ccc7c(c6)cc(OCC(=O)NC)c(=O)n7C)n5)CC4)CC3)c2)c(-c2cn(C)c(=O)c3[nH]ccc23)c1` [Compound I-9]: the IC50 in assay [1] and in assay [2] was 5 to 50 nM throughout. Besides, the GI50 in assay [3] and in assay [4] was below 500 nM in each case.

For `CCS(=O)(=O)Nc1ccc(Oc2ccc(OCCCCN3CCN(CC4CCN(c5ncc(Cl)c(Nc6ccc7c(c6)cc(OCC(=O)NC)c(=O)n7C)n5)CC4)CC3)cc2)c(-c2cn(C)c(=O)c3[nH]ccc23)c1` [Compound I-10], the IC50 in assay [1] is 5 to 50 nM; in assay [2], below 5 nM. Also, the concentration for 50% growth inhibition (GI50) in assay [3] and in assay [4] was below 500 nM each time.

`CCS(=O)(=O)Nc1ccc(Oc2cccc(OCCN3CCN(CCCC4CCN(c5ncc(Cl)c(Nc6ccc7c(c6)cc(OCC(=O)NC)c(=O)n7C)n5)CC4)CC3)c2)c(-c2cn(C)c(=O)c3[nH]ccc23)c1` [Compound I-11]: the IC50 in assay [1] and in assay [2] was 5 to 50 nM each time. Further, the 50% growth inhibitory concentration (GI50) in assay [3] and in assay [4] was below 500 nM throughout.

On to `CCS(=O)(=O)Nc1ccc(Oc2ccc(OCCN3CCN(CCCC4CCN(c5ncc(Cl)c(Nc6ccc7c(c6)cc(OCC(=O)NC)c(=O)n7C)n5)CC4)CC3)cc2)c(-c2cn(C)c(=O)c3[nH]ccc23)c1` [Compound I-12], for which the half-inhibitory concentration (IC50) in assay [1] and in assay [2] was 5 to 50 nM in each case. The GI50 in assay [3] and in assay [4] was below 500 nM in each case.

Consider `CCS(=O)(=O)Nc1ccc(Oc2cccc(OCCN3CCN(CCC4CCN(c5ncc(Cl)c(Nc6ccc7c(c6)cc(OCC(=O)NC)c(=O)n7C)n5)CC4)CC3)c2)c(-c2cn(C)c(=O)c3[nH]ccc23)c1` [Compound I-13], for which the IC50 in assay [1] and in assay [2] was 5 to 50 nM in each case. For the same compound, the GI50 in assay [3] and in assay [4] was below 500 nM throughout.

Turning to `CCS(=O)(=O)Nc1ccc(Oc2ccc(OCCN3CCN(CCC4CCN(c5ncc(Cl)c(Nc6ccc7c(c6)cc(OCC(=O)NC)c(=O)n7C)n5)CC4)CC3)cc2)c(-c2cn(C)c(=O)c3[nH]ccc23)c1` [Compound I-14], the concentration for half-maximal inhibition (IC50) was 5 to 50 nM in assay [1] and below 5 nM in assay [2]. Further, the GI50 in assay [3] is below 500 nM; in assay [4], 500 to 1500 nM.

In the case of `CCS(=O)(=O)Nc1ccc(Oc2ccc(CCN3CCN(CC4CCN(c5ncc(Cl)c(Nc6ccc7c(c6)cc(OCC(=O)NC)c(=O)n7C)n5)CC4)CC3)cc2)c(-c2cn(C)c(=O)c3[nH]ccc23)c1` [Compound I-16, 2-[[6-[[5-chloro-2-[4-[[4-[2-[4-[4-(ethylsulfonylamino)-2-(6-methyl-7-oxo-1H-pyrrolo[2,3-c]pyridin-4-yl)phenoxy]phenyl]ethyl]piperazin-1-yl]methyl]-1-piperidyl]pyrimidin-4-yl]amino]-1-methyl-2-oxo-3-quinolyl]oxy]-N-methyl-acetamide], the figures for the IC50 in assay [1] and in assay [2] were 5 to 50 nM and below 5 nM, respectively. For the same compound, the GI50 in assay [3] and in assay [4] was below 500 nM each time.

As to `CCS(=O)(=O)Nc1ccc(Oc2cccc(CCN3CCN(CC4CCN(c5ncc(Cl)c(Nc6ccc7c(c6)cc(OCC(=O)NC)c(=O)n7C)n5)CC4)CC3)c2)c(-c2cn(C)c(=O)c3[nH]ccc23)c1` [Compound I-17], the half-inhibitory concentration (IC50) in assay [1] and in assay [2] was 5 to 50 nM throughout. Also, the GI50 was above 3000 nM in assay [3] and below 500 nM in assay [4].

Turning to `CNC(=O)COc1cc2cc(Nc3nc(N4CCC(CN5CCC6(CC5)CC(CC5CC(Oc7ccc(C(C)(C)O)cc7-c7cn(C)c(=O)c8[nH]ccc78)C5)C6)CC4)ncc3Cl)ccc2n(C)c1=O` (stereo not shown) [Compound I-54], the GI50 in assay [5] and in assay [3] was below 500 nM throughout.

A word on the IC50: it is the concentration that inhibits the measured activity by half. Broadly, the GI50 is the concentration giving 50% growth inhibition.
